From article PMC9302014, “PEGylation improves the therapeutic potential of dimerized translationally controlled tumor protein blocking peptide in ovalbumin-induced mouse model of airway inflammation” (Drug Delivery, 2022)

Tested on: OVA-induced allergic airway inflammation
Assay: Mouse model of OVA-induced allergic airway inflammation
Type: in vivo
Conditions: single 1 mg/kg intraperitoneal on day 32, n = 10-12
Procedure: Sixty female BALB/c mice, 6–7 weeks of age, were randomly divided into five groups (12 mice per group) and intraperitoneally sensitized on days 1 and 14 with 50 μg OVA emulsified in 2 mg aluminum hydroxide in a total volume of 200 μl. The control group of naïve mice received the same volume of PBS for the duration of the experiment. Two weeks after the second sensitization, the animals were challenged with 200 μg of OVA through intranasal administration under light anesthesia on days 28, 30, 32, and 34. […]. On day 35, the mice were sacrificed and BALF, lung tissue, and serum were collected for further analysis.
Mice were anesthetized, and the trachea was excised, and cannulated with a polyethylene tube. The lungs were lavaged with 0.8 ml of PBS four times, and 0.6 ml of BALF was obtained. The collected lavage fluid was cooled on ice and centrifuged at 1,000 rpm for 10 min at 4 °C. The supernatant was used for ELISA assays. The pellets were resuspended in 0.1 ml PBS, and the total inflammatory cell numbers were quantified using a Hemavet (Drew Scientific Inc., Oxford, CT).
After lavage, the right lung lobe was isolated and stored at −80 °C until required. The lung tissue was homogenized in 50 mM Tris-HCl buffer (pH 7.4) containing 150 mM NaCl, 1 mM EDTA, 0.25% deoxycholate, and a protease inhibitor (Sigma) using a tissuelyser II (Qiagen). The lung homogenates were centrifuged at 10,000 × g for 10 min, and the supernatants were collected and used for ELISA assay.
The left lung lobe was fixed in 4% formaldehyde, embedded in paraffin, and sectioned at a thickness of 4 μm. The sections were stained with hematoxylin and eosin (H&E) to detect infiltration of inflammatory cells and with periodic acid-Schiff (PAS) staining for the analysis of goblet cells hyperplasia/mucus production. The H&E stained sections were scored for the presence of inflammatory cells using the following scale: (0) = absent, (1) = rare, (2) = mild, (3) = moderate, (4) = severe. Scoring was performed by 6 observers in a blinded manner. Also, the area of H&E stained cells was quantified in the selected field, and the area of PAS-positive cells per bronchiole was expressed as the % of the total epithelial area using ImageJ software (National Institute of Health, Bethesda, MD).
Statistical analysis was performed using GRAPHPAD^TM PRISM version 8.0 for Windows (GraphPad Software, San Diego, CA). Statistical significance was determined using Student’s two-tailed unpaired t-test for comparisons between two groups. For more than 3 groups, a one-way analysis of variance (ANOVA) was followed by Tukey’s test. Error bars were expressed as the mean ± the standard error of the mean (SEM) of 10 to 12 mice per group. Significant differences between means were defined as p < 0.05.

C[C@@H]1C[C@H]2[C@@H]3CCC4=CC(=O)C=C[C@]4(C)[C@@]3(F)[C@@H](O)C[C@]2(C)[C@@]1(O)C(=O)CO [Dex, dexamethasone]
levels of IL-4, IL-5, and IL-13 in lung homogenates increased by OVA challenge (ELISA): suppressed
number of lymphocytes in BALF compared to the OVA group: did not significantly suppress
number of monocytes in BALF compared to the OVA group: did not significantly suppress
number of total cells (total leukocytes) in BALF compared to the OVA-challenged group: no difference
